From patent US20250115583A1, “BICYCLIC INDAZOLE GLUCOCORTICOID RECEPTOR ANTAGONISTS” (Corcept Therapeutics Incorporated, priority 2021, published 2025)

biological target: glucocorticoid receptor (Homo sapiens (Human), UniProt P04150); assay: HepG2 TAT assay: inhibition of dexamethasone-induced tyrosine aminotransferase (TAT) activity; format: cell-based; details: HepG2 cells, challenge of 100 nM dexamethasone, 18-24 hr; IC50 converted to Ki by Cheng and Prusoff equation
How it was run: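 Cells lysed 15 min at 4 °C; TAT enzyme reaction 2 h at 37 °C, stopped with KOH, 30 min further at 37 °C. Inhibition fitted to 4-parameter logistic.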

Sequence of glucocorticoid receptor (P04150 whole entry): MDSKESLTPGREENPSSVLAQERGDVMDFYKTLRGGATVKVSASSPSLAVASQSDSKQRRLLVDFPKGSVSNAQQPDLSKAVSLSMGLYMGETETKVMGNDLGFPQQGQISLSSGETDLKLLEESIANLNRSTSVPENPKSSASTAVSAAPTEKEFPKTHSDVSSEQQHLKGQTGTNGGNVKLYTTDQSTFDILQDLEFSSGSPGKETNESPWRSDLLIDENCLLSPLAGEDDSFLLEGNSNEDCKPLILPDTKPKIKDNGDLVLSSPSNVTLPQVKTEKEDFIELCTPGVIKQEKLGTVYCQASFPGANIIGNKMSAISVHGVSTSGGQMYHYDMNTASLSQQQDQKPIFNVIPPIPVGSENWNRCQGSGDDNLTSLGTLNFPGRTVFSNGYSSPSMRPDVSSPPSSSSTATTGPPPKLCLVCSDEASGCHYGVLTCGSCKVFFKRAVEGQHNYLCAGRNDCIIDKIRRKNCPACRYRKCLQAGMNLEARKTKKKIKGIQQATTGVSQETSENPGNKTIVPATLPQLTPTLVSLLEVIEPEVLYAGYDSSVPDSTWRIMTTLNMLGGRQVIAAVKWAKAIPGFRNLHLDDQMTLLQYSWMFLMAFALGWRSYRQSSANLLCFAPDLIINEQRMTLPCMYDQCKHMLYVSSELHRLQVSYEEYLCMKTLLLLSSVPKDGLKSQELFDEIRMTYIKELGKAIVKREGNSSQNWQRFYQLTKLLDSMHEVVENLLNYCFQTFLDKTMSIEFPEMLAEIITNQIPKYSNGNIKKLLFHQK

| Compound | Ki [nM] |
| --- | --- |
| Cc1cc2c(cnn2-c2ccc(F)cc2)cc1[C@@]12CN(S(=O)(=O)c3cnn(C)n3)C[C@@H]1[C@H]2C(=O)NCC(C)C [Example 66] | 150 |
| Cc1cc2c(cnn2-c2ccc(F)cc2)cc1[C@@]12CN(S(C)(=O)=O)C[C@@H]1[C@H]2C(=O)Nc1ccc(F)cn1 [Example 67] | 84 |
| Cc1cc2c(cnn2-c2ccc(F)cc2)cc1[C@@]12CN(S(=O)(=O)c3cnn(C)n3)C[C@@H]1[C@H]2c1ccccc1 [Example 70] | 24 |
| Cc1cc2c(cnn2-c2ccc(F)cc2)cc1[C@@]12CN(S(=O)(=O)c3cnn(C)n3)C[C@@H]1[C@H]2c1ccccc1 [Example 71] | 15 |
| Cc1cc2c(cnn2-c2ccc(F)cc2)cc1[C@]12CN(S(=O)(=O)c3cnn(C)n3)C[C@H]1[C@@H]2c1ccccc1 [Example 72] | 160 |
| Cc1cc2c(cnn2-c2ccc(F)cc2)cc1[C@]12CN(S(=O)(=O)c3cnn(C)c3)C[C@H]1[C@@H]2c1ccccc1 [Example 73] | 36 |
| CCn1ncc(S(=O)(=O)N2C[C@H]3[C@H](c4ccccc4)[C@@]3(c3cc4cnn(-c5ccc(F)cc5)c4cc3C)C2)n1 [Example 74] | 15 |
| CCCn1ncc(S(=O)(=O)N2C[C@H]3[C@H](c4ccccc4)[C@@]3(c3cc4cnn(-c5ccc(F)cc5)c4cc3C)C2)n1 [Example 75] | 25 |
| Cc1cc2c(cnn2-c2ccc(F)cc2)cc1[C@@]12CN(S(C)(=O)=O)C[C@@H]1[C@H]2c1ccccc1 [Example 77] | 39 |
| Cc1cc2c(cnn2-c2ccc(F)cc2)cc1[C@]12CN(S(=O)(=O)c3cncc(F)c3)C[C@H]1[C@@H]2c1ccccc1 [Example 78] | 25 |
| COCCn1cc(S(=O)(=O)N2C[C@H]3[C@H](c4ccccc4)[C@@]3(c3cc4cnn(-c5ccc(F)cc5)c4cc3C)C2)cn1 [Example 79] | 33 |
| Cc1cc2c(cnn2-c2ccc(F)cc2)cc1[C@]12CN(S(=O)(=O)c3cnn(C(C)C)n3)C[C@H]1[C@@H]2c1ccccc1 [Example 80] | 23 |
| Cc1cc2c(cnn2-c2ccc(F)cc2)cc1[C@@]12CN(S(=O)(=O)C3CC3)C[C@@H]1[C@H]2c1ccccc1 [Example 85] | 21 |
| COCCS(=O)(=O)N1C[C@@H]2[C@@H](c3ccccc3)[C@]2(c2cc3cnn(-c4ccc(F)cc4)c3cc2C)C1 [Example 86] | 32 |
| Cc1cc2c(cnn2-c2ccc(F)cc2)cc1[C@]12CN(S(=O)(=O)N3CCOCC3)C[C@H]1[C@@H]2c1ccccc1 [Example 87] | 20 |
| Cc1cc2c(cnn2-c2ccc(F)cc2)cc1[C@]12CN(S(=O)(=O)C3CCOCC3)C[C@H]1[C@@H]2c1ccccc1 [Example 88] | 47 |
| Cc1cc2c(cnn2-c2ccc(F)cc2)cc1[C@@]12CN(S(=O)(=O)c3ccccc3)C[C@@H]1[C@H]2c1ccccc1 [Example 89] | 17 |
| Cc1cc2c(cnn2-c2ccc(F)cc2)cc1[C@@]12CN(S(=O)(=O)c3cccnc3)C[C@@H]1[C@H]2c1ccccc1 [Example 90] | 14 |
| Cc1cc2c(cnn2-c2ccc(F)cc2)cc1[C@@]12CN(S(=O)(=O)c3cncs3)C[C@@H]1[C@H]2c1ccccc1 [Example 91] | 22 |
| CCn1ccc(S(=O)(=O)N2C[C@@H]3[C@@H](c4ccccc4)[C@]3(c3cc4cnn(-c5ccc(F)cc5)c4cc3C)C2)n1 [Example 92] | 9.5 |
| Cc1cc2c(cnn2-c2ccc(F)cc2)cc1[C@]12CN(S(=O)(=O)CC3CC3)C[C@H]1[C@@H]2c1ccccc1 [Example 93] | 29 |
| CCS(=O)(=O)N1C[C@@H]2[C@@H](c3ccccc3)[C@]2(c2cc3cnn(-c4ccc(F)cc4)c3cc2C)C1 [Example 94] | 31 |
| Cc1cc2c(cnn2-c2ccc(F)cc2)cc1[C@]12CN(S(=O)(=O)c3cnn(C)c3)C[C@H]1[C@@H]2c1cccc(Cl)c1 [Example 96] | 110 |
| Cc1cc2c(cnn2-c2ccc(F)cc2)cc1[C@]12CN(S(=O)(=O)c3cn(C)nn3)C[C@H]1[C@@H]2c1ccccc1 [Example 97] | 32 |
| Cc1cc2c(cnn2-c2ccc(F)cc2)cc1[C@@]12CN(S(=O)(=O)NCC(C)C)C[C@@H]1[C@H]2c1ccccc1 [Example 100] | 82 |
